The results in this text go back to patent US9427442B2, “Fluoroalkyl and fluorocycloalkyl 1,4-benzodiazepinone compounds” (BRISTOL-MYERS SQUIBB COMPANY, priority 2012, dated 2016).

Molecules are shown by their SMILES.

As a reminder, the IC50 is the concentration at which inhibition is half-maximal.

One data set has as its system human Notch 1. Briefly: Notch-CBF1 Transactivation Assay (Notch 1). It is filed as cell-based. The settings on record: read-out: Notch 1 (IC50); HeLa cells transfected with truncated Notch 1 and CBF1 luciferase reporter; 18 hours; average of N experiments. An excerpt:
(§1) Notch-CBF1 Transactivation Assay
(§2) The Notch-CBF1 (C-promoter binding factor I) cell based transactivation assay is based on the ability of the released Notch intracellular domain fragments (NICDs) to function as transcription factors in conjunction with CBF1 and other nuclear factors. Luciferase assays were used to measure the antagonism of Notch-CBF1 transcriptional activity. HeLa cervical cancer cells are transiently co-transfected with pCDNA3.1/Hygro plasmids containing truncated Notch 1, Notch 2, Notch 3, or Notch 4 receptors and a PGL3 luciferase reporter vector containing 4 copies of CBF1 binding site. The cells were then tested for Notch-CBF1 activity in the absence or presence of test compounds. HeLa cells, maintained in DMEM (high glucose with HEPES), 1× glutamine/penicillin/streptomycin and 10% Fetal Bovine serum, were transiently transfected in a T175 Flask (4.5×10^6 cells/flask) using the Monster Transfection Kit (Minis #MIR2906) according to manufacturers specifications. Table 5 denotes respective DNA quantity for the transfections.
(§3) Assay media (5 μL) containing test compounds in final concentrations ranging from 5 μM to 8.4×10^−5 μM (3 fold serial dilutions) were added to the cells and the cell plates were then incubated for 18 hours at 37° C. and 5% CO2. Control wells contained DMSO vehicle (total counts) or 0.5 μM of an in-house small molecule inhibitor (background counts). Duplicates were used for each sample. Luciferase activity was measured after a 20-minute incubation with 50 μl STEADY-GLO® luciferase reagents according to manufacturer's specifications (Promega, Cat. #E2550) and analyzed by Envision plate reader (PerkinElmer, Boston, Mass.).
(§4) The antagonist effect of compounds was expressed as 100×[1−(average sample−average background)/(average total−average background)] where sample is the luciferase activity in the presence of test compound, background is equal to the luciferase activity in the presence of the small molecule inhibitor control and the total is signal induced in DMSO wells.
A general note: Reporter assays use an easily measured gene product as a stand-in for the process of interest.

A further data set deals with human Notch 3. Description: Notch-CBF1 Transactivation Assay (Notch 3). As to conditions: read-out: Notch 3 (IC50); HeLa cells transfected with truncated Notch 3 and CBF1 luciferase reporter; 18 hours; average of N experiments. It is filed as cell-based.
Text: as §1, §2, §3, §4

Data set [1] in a line: Human metabolic stability half-life assay. The class given is in vitro ADME. The settings on record: pH 7.4; human liver microsomes, NADPH, 0.5 μM compound, 45-minute time course; read-out: HLM (t1/2, min). The source says:
Metabolic Stability Half-Life Panel

For the next data set, the system named is TALL-1. Briefly: Human Tumor Xenograft Models in Mice (TALL-1). It is filed as in vivo. On the procedure: Human Tumor Xenograft Models in Mice
Mice were fed food and water ad libitum.
When death occurred, the day of death was recorded.
For orientation: In xenograft studies the graft and the host belong to different species.

In the case of `Cc1cccc2c1NC(=O)[C@@H](NC(=O)[C@H](CCC(F)(F)F)[C@H](CC1CC(F)(F)C1)C(N)=O)N=C2c1ccccc1` [Example 1, (2R,3S)-3-((3,3-Difluorocyclobutyl)methyl)-N-((3S)-9-methyl-2-oxo-5-phenyl-2,3-dihydro-1H-1,4-benzodiazepin-3-yl)-2-(3,3,3-trifluoropropyl)succinamide], the IC50 in the data set on human Notch 1 came out at 3 nM; in the data set on human Notch 3, 2.4 nM. Moreover, the half-life at 0.5 µM in data set [1] came out at 60 min. In the data set on TALL-1 (Human Tumor Xenograft Models in mice, oral), the “antitumor activity with oral administration (PO)” value was “showed antitumor activity”. For the same molecule, the “Antitumor Activity in TALL-1 (LCK) BID dosing” value in the data set on TALL-1 (Oral Administration, Dose 10, Schedule BIDx10, LCK = Log Cell Kill, NOD-SCID mice) is 2.7.

With `COc1cccc2c1NC(=O)[C@@H](NC(=O)[C@H](CCC(F)(F)F)[C@@H](C(N)=O)C1CCC(F)(F)CC1)N=C2c1ccccc1` [Example 2, (2R,3S)-3-(4,4-Difluorocyclohexyl)-N-((3S)-9-methoxy-2-oxo-5-phenyl-2,3-dihydro-1H-1,4-benzodiazepin-3-yl)-2-(3,3,3-trifluoropropyl)succinamide], the IC50 with human Notch 1 was 7 nM; in the data set with human Notch 3, 6 nM. Besides, the half-life at 0.5 µM in data set [1] was determined as 43 min.

Take `Cc1cccc(C2=N[C@H](NC(=O)[C@H](CCC(F)(F)F)[C@H](CC3CC(F)(F)C3)C(N)=O)C(=O)Nc3c(F)cccc32)c1` [Example 11, (2R,3S)-3-((3,3-Difluorocyclobutyl)methyl)-N-((3S)-9-fluoro-5-(3-methylphenyl)-2-oxo-2,3-dihydro-1H-1,4-benzodiazepin-3-yl)-2-(3,3,3-trifluoropropyl)succinamide]: the IC50 was 2.1 nM in the data set with human Notch 1 and 2.2 nM with human Notch 3. Besides, the half-life at 0.5 µM in data set [1] worked out at 46 min.

Take `NC(=O)[C@@H](CC1CC(F)(F)C1)[C@@H](CCC(F)(F)F)C(=O)N[C@H]1N=C(c2ccccc2)c2ccccc2NC1=O` [Example 15, (2R,3S)-3-((3,3-Difluorocyclobutyl)methyl)-N-((3S)-2-oxo-5-phenyl-2,3-dihydro-1H-1,4-benzodiazepin-3-yl)-2-(3,3,3-trifluoropropyl)succinamide]: the results for the 50% inhibitory concentration (IC50) in the data set on human Notch 1 and with human Notch 3 were 4.4 nM and 3.8 nM, respectively. Further, the half-life at 0.5 µM in data set [1] came to 35 min.

Regarding `C[C@@H](C[C@H](C(N)=O)[C@@H](CCC(F)(F)F)C(=O)N[C@H]1N=C(c2ccccc2)c2cccc(Cl)c2NC1=O)C(F)(F)F` [Example 23, (2R,3S)—N-((3S)-9-Chloro-2-oxo-5-phenyl-2,3-dihydro-1H-1,4-benzodiazepin-3-yl)-3-((2S)-3,3,3-trifluoro-2-methylpropyl)-2-(3,3,3-trifluoropropyl)succinamide], the IC50 came out at 5.1 nM with human Notch 1 and 3.2 nM in the data set on human Notch 3. Moreover, the half-life at 0.5 µM in data set [1] amounted to 111 min.

For `COc1cccc2c1NC(=O)[C@@H](NC(=O)[C@H](CCC(F)(F)F)[C@H](CCCF)C(N)=O)N=C2c1ccccc1` [Example 16, (2R,3S)-3-(3-Fluoropropyl)-N-((3S)-9-methoxy-2-oxo-5-phenyl-2,3-dihydro-1H-1,4-benzodiazepin-3-yl)-2-(3,3,3-trifluoropropyl)succinamide], the IC50 with human Notch 1 was found to be 7 nM; in the data set on human Notch 3 it was 15.4 nM. Also, the half-life at 0.5 µM in data set [1] worked out at 88 min.

In the case of `NC(=O)[C@@H](CCCF)[C@@H](CCC(F)(F)F)C(=O)N[C@H]1N=C(c2ccccc2)c2cccc(Cl)c2NC1=O` [Example 20, (2R,3S)—N-((3S)-9-Chloro-2-oxo-5-phenyl-2,3-dihydro-1H-1,4-benzodiazepin-3-yl)-3-(3-fluoropropyl)-2-(3,3,3-trifluoropropyl)succinamide], the IC50 in the data set on human Notch 1 came out at 10.8 nM; with human Notch 3 it was 16.5 nM. Besides, the half-life at 0.5 µM in data set [1] was determined as 107 min.

For the molecule `Cc1cccc(C2=N[C@H](NC(=O)[C@H](CCC(F)(F)F)[C@H](CC3CC(F)(F)C3)C(N)=O)C(=O)Nc3c(Cl)cccc32)c1` [Example 10, (2R,3S)—N-((3S)-9-Chloro-5-(3-methylphenyl)-2-oxo-2,3-dihydro-1H-1,4-benzodiazepin-3-yl)-3-((3,3-difluorocyclobutyl)methyl)-2-(3,3,3-trifluoropropyl)succinamide], the results for the IC50 in the data set on human Notch 1 and with human Notch 3 were 1.7 nM and 4.4 nM, respectively. In addition, in data set [1], the half-life at 0.5 µM was 69 min.

`C[C@H](C[C@H](C(N)=O)[C@@H](CCC(F)(F)F)C(=O)N[C@H]1N=C(c2ccccc2)c2cccc(Cl)c2NC1=O)C(F)(F)F` [Example 22, (2R,3S)—N-((3S)-9-Chloro-2-oxo-5-phenyl-2,3-dihydro-1H-1,4-benzodiazepin-3-yl)-3-((2R)-3,3,3-trifluoro-2-methylpropyl)-2-(3,3,3-trifluoropropyl)succinamide]: the IC50 in the data set on human Notch 1 is 3.2 nM; in the data set with human Notch 3, 9.3 nM. Besides, in data set [1], the half-life at 0.5 µM stood at 117 min.
